Measured values as given in patent US20250066389A1, “HETEROCYCLIC AMIDES AND METHODS OF USING THE SAME” (Rgenta Therapeutics, Inc., priority 2021, published 2025).
Where a name gives a salt, the structure may show the parent alone.

System: PMS1
Test: Mini-Gene Reporter Assay—PMS1 (firefly luciferase mini-gene reporter transiently transfected into HEK293 cells)
Assay type: cell-based
Settings: Homo sapiens, mini-gene firefly luciferase reporter in HEK293 cells; for activation at 5 µM: read-out: PMS1 % Effect at 5 uM
In short: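 Luminescence (RLU) read-out of exon inclusion: compound dilutions, tested in duplicate, act on transiently transfected HEK293 cells carrying a firefly luciferase reporter fused downstream of the PMS1 skipped-exon region. Potency derived by Levenberg-Marquardt curve fitting, with percent effect at 5 μM.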

| IC50 [nM] | SMILES | activation at 5 µM [%] |
| --- | --- | --- |
|  | CCOc1cn2nc(C)cc2cc1C(=O)Nc1cnc(N2CC[C@@H]3CNC[C@@H]3CC2)nc1 [Compound 619] | < 50 |
|  | CCOc1cn2nc(C)cc2cc1C(=O)Nc1cnc(NC2CCNCC2)cn1 [Compound 559] | > 75 |
|  | CCOc1cc2nn(C)cc2cc1C(=O)Nc1cnc(NC(C)C2CCNCC2)cn1 (stereo not drawn) [Compound 356] | < 50 |
|  | CCNC1CCN(c2ccc(NC(=O)c3cn4cc(C)nc4cc3OC)c(F)c2)CC1 [Compound 149, N-(4-(4-(ethylamino)piperidin-1-yl)-2-fluorophenyl)-7-methoxy-2-methylimidazo[1,2-a]pyridine-6-carboxamide] | > 75 |
| 1000 to 10000 | CCOc1cc2nc(C)cn2cc1C(=O)Nc1ccc(N2CCC[C@H]3NCC[C@H]32)nn1 (racemic) [Compound 252] |  |
|  | CCOc1cc2nn(C)cc2cc1C(=O)Nc1cnc(N2CC(NC)C(C)(C)C2)nc1 (stereo not drawn) [Compound 412] | < 50 |
| < 1000 | CCOc1cc2nc(C)cn2cc1C(=O)Nc1ccc(N2CC3=C(CNC3)C2)nn1 [Compound 229] |  |
|  | CCOc1cn2nc(C)cc2cc1C(=O)Nc1cnc(NCC(N)c2ccc(F)cc2)nc1 (stereo not drawn) [Compound 570] | < 50 |
|  | CCOc1cc2nn(C)cc2cc1C(=O)Nc1cnc(NCC2CNC2)nc1 [Compound 468] | < 50 |
|  | CCOc1cc2nn(C)cc2cc1C(=O)Nc1cnc(NCC2CCCNC2)cn1 (stereo not drawn) [Compound 378] | < 50 |
| 1000 to 10000 | Cc1cn2cc(C(=O)Nc3ccc(N4CCN[C@@H](C)C4)nn3)c(OC3CCCOC3)cc2n1 (stereo partly drawn) [Compound 218, 2-methyl-N-(6-((S)-3-methylpiperazin-1-yl)pyridazin-3-yl)-7-((tetrahydro-2H-pyran-3-yl)oxy)imidazo[1,2-a]pyridine-6-carboxamide] |  |
| 1000 to 10000 | CCOc1cc2nn(C)cc2cc1C(=O)Nc1ccc(N2CCN(CC)[C@@H](C)C2)nn1 [Compound 300, (S)-6-ethoxy-N-(6-(4-ethyl-3-methylpiperazin-1-yl)pyridazin-3-yl)-2-methyl-2H-indazole-5-carboxamide hydrochloride] |  |
| < 1000 | CCOc1cc2nn(C)cc2cc1C(=O)Nc1ccc(N2CCN[C@@H](C)C2)nn1 [Compound 208, (S)-6-ethoxy-2-methyl-N-(6-(3-methylpiperazin-1-yl)pyridazin-3-yl)-2H-indazole-5-carboxamide HCl Salt] | > 75 |
|  | CCOc1cc2nn(C)cc2cc1C(=O)Nc1cnc(N2CCC(C3CCCN3)CC2)cn1 (stereo not drawn) [Compound 338] | > 75 |
|  | CCOc1cc2nn(C)cc2cc1C(=O)Nc1cnc(NCCC2CC(F)(F)CN2)nc1 (stereo not drawn) [Compound 417] | < 50 |
|  | CCOc1cn2nc(C)cc2cc1C(=O)Nc1ccc(N2C[C@@H](C)N[C@@H](C)C2)nn1 [Compound 761, N-(6-((3R,5S)-3,5-dimethylpiperazin-1-yl)pyridazin-3-yl)-6-ethoxy-2-methylpyrazolo[1,5-a]pyridine-5-carboxamide hydrochloride] | > 75 |
|  | CCOc1cc2nn(C)cc2cc1C(=O)Nc1cnc(N2CC(CO)C3(CNC3)C2)cn1 (stereo not drawn) [Compound 330] | < 50 |
| 1000 to 10000 | CCOc1cc2nc(C)cn2cc1C(=O)Nc1ccc(N2CCNC3CC32)nn1 (stereo not drawn) [Compound 258] |  |
|  | CCOc1cc2nn(C)cc2cc1C(=O)Nc1cnc(NC2CCCNC2C)nc1 (stereo not drawn) [Compound 415] | < 50 |
| < 1000 | Cc1cn2cc(C(=O)Nc3ccc(N4CCN[C@@H](C)C4)nn3)c(OC3CCOC3)cc2n1 (stereo partly drawn) [Compound 206, 2-methyl-N-(6-((S)-3-methylpiperazin-1-yl)pyridazin-3-yl)-7-((tetrahydrofuran-3-yl)oxy)imidazo[1,2-a]pyridine-6-carboxamide hydrochloride] |  |
|  | CCOc1cn2nc(C)cc2cc1C(=O)Nc1cnc(N2CCCC3(CCNC3)C2)nc1 (stereo not drawn) [Compound 578] | < 50 |
| 1000 to 10000 | CCOc1cc2nc(C)cn2cc1C(=O)Nc1ccc(N2CC3(CNC3)C2)nn1 [Compound 277] |  |
|  | COc1cc2nn(C)cc2cc1C(=O)Nc1ccc(N2CC3(CNC3)C2)cc1F [Compound 116, N-(2-fluoro-4-(2,6-diazaspiro[3.3]heptan-2-yl)phenyl)-6-methoxy-2-methyl-2H-indazole-5-carboxamide TFA Salt] | < 50 |
| < 1000 | COc1cc2nn(C)cc2cc1C(=O)Nc1ccc(N2CCNCC2)cc1F [Compound 115, N-(2-fluoro-4-(piperazin-1-yl)phenyl)-6-methoxy-2-methyl-2H-indazole-5-carboxamide HCl Salt] |  |
|  | CCOc1cc2nn(C)cc2cc1C(=O)Nc1cnc(NC2CCC23CNC3)nc1 (stereo not drawn) [Compound 383] | < 50 |
|  | CCOc1cc2nn(C)cc2cc1C(=O)Nc1cnc(N2CCNCC2)cn1 [Compound 370] | > 75 |
| < 1000 | COc1cc2nc(C)cn2cc1C(=O)Nc1ccc(N2CCN[C@@H](C)C2)cn1 [Compound 718, (S)-7-methoxy-2-methyl-N-(5-(3-methylpiperazin-1-yl)pyridin-2-yl)imidazo[1,2-a]pyridine-6-carboxamide formate] |  |

| IC50 [nM] | SMILES | activation at 5 µM [%] |
| --- | --- | --- |
|  | CCNCC1CCN(c2ncc(NC(=O)c3cc4cc(C)nn4cc3OCC)cn2)CC1 [Compound 623] | < 50 |
|  | CCOc1cn2nc(C)cc2cc1C(=O)Nc1cnc(N2CC(N)C2)nc1 [Compound 595] | < 50 |
| 1000 to 10000 | CCOc1cc2nc(C)cn2cc1C(=O)Nc1ccc(N2CCC(NC(C)(C)C)C2)nn1 (stereo not drawn) [Compound 733, N-(6-(3-(tert-butylamino)pyrrolidin-1-yl)pyridazin-3-yl)-7-ethoxy-2-methylimidazo[1,2-a]pyridine-6-carboxamide] |  |
|  | CCOc1cn2nc(C)cc2cc1C(=O)Nc1cnc(N2CCOC3(CCNCC3)C2)cn1 [Compound 545] | < 50 |
|  | CCOc1cc2nn(C)cc2cc1C(=O)Nc1cnc(NCCCC2CCCN2)nc1 (stereo not drawn) [Compound 398] | < 50 |
|  | CCOc1cc2nc(C)cn2cc1C(=O)Nc1cnc(N2CCNC(C)C2)nc1 (stereo not drawn) [Compound 654] | > 75 |
|  | CCOc1cn2nc(C)cc2cc1C(=O)Nc1cnc(NCC2(C)CCNC2)cn1 (stereo not drawn) [Compound 528] | < 50 |
| < 1000 | CCOc1nc2nn(C)cc2cc1C(=O)Nc1ccc(N2CCN[C@@H](C)C2)nn1 [Compound 225, (S)-6-ethoxy-2-methyl-N-(6-(3-methylpiperazin-1-yl)pyridazin-3-yl)-2H-pyrazolo[3,4-b]pyridine-5-carboxamide hydrochloride] |  |
|  | CCOc1cn2nc(C)cc2cc1C(=O)Nc1cnc(N2CCC(C3CCCNC3)CC2)nc1 (stereo not drawn) [Compound 610] | < 50 |
| < 1000 | COc1cc2nc(C)cn2cc1C(=O)Nc1ccc(N2CCC3(CC2)COCCN3)cc1F [Compound 133, N-(2-fluoro-4-(4-oxa-1,9-diazaspiro[5.5]undecan-9-yl)phenyl)-7-methoxy-2-methylimidazo[1,2-a]pyridine-6-carboxamide] |  |
|  | CCCNCCNc1cnc(NC(=O)c2cc3cn(C)nc3cc2OCC)cn1 [Compound 365] | > 75 |
|  | CCOc1cn2nc(C)cc2cc1C(=O)Nc1cnc(NCCNC)cn1 [Compound 552] | > 75 |
|  | CCNCCN(CC)c1cnc(NC(=O)c2cc3cn(C)nc3cc2OCC)cn1 [Compound 344] | < 50 |
| 1000 to 10000 | CCOc1cc2nc(C)cn2cc1C(=O)Nc1ccc(N2CCC(CNC)CC2)nn1 [Compound 270] |  |
|  | CCOc1cn2nc(C)cc2cc1C(=O)Nc1cnc(NC[C@H]2CCCN2)nc1 [Compound 593] | < 50 |
| 1000 to 10000 | COc1cc2nc(C)cn2cc1C(=O)Nc1ccc(N2CCNC(CC(F)F)C2)cc1F (stereo not drawn) [Compound 173, N-(4-(3-(2,2-difluoroethyl)piperazin-1-yl)-2-fluorophenyl)-7-methoxy-2-methylimidazo[1,2-a]pyridine-6-carboxamide] |  |
|  | CCOc1cc2nn(C)cc2cc1C(=O)Nc1cnc(NCC[C@@H]2C[C@H](OC)CN2)nc1 [Compound 425] | < 50 |
|  | CCOc1cc2nn(C)cc2cc1C(=O)Nc1cnc(N2CCOC3(CCNCC3)C2)cn1 [Compound 357] | < 50 |
|  | CCOc1cn2nc(C)cc2cc1C(=O)Nc1ccc(C2CCNCC2)nn1 [Compound 757, 6-ethoxy-2-methyl-N-(6-(piperidin-4-yl)pyridazin-3-yl)pyrazolo[1,5-a]pyridine-5-carboxamide hydrochloride] | > 75 |
|  | CCOc1cc2nc(C)cn2cc1C(=O)Nc1cnc(NCC2(F)CCNC2)cn1 (stereo not drawn) [Compound 674] | 50 to 75 |
|  | CCOc1cn2nc(C)cc2cc1C(=O)Nc1cnc(N2CCC3(CNCCO3)C2)nc1 (stereo not drawn) [Compound 572] | < 50 |
| 1000 to 10000 | CCOc1cc2nn(C)cc2cc1C(=O)Nc1ccc(N2CCN3CCC[C@H]3C2)nn1 [Compound 738, (S)-6-ethoxy-N-(6-(hexahydropyrrolo[1,2-a]pyrazin-2(1H)-yl)pyridazin-3-yl)-2-methyl-2H-indazole-5-carboxamide] |  |
|  | CCOc1cc2nn(C)cc2cc1C(=O)Nc1cnc(N2CCCC(CCN)C2)nc1 (stereo not drawn) [Compound 455] | < 50 |
|  | CCOc1cc2nc(C)cn2cc1C(=O)Nc1ccc(N2CC[C@H](NC)C2)nn1 (single isomer, unassigned) [Compound 706] | > 75 |
|  | CCOc1cn2nc(C)cc2cc1C(=O)Nc1cnc(N2CCC3(CC2)CNCCO3)nc1 [Compound 584] | < 50 |
|  | CCOc1cn2nc(C)cc2cc1C(=O)Nc1cnc(N2CCC(N)(CC)CC2)nc1 [Compound 564] | < 50 |
| 1000 to 10000 | CCOc1cc2nc(C)cn2cc1C(=O)Nc1ccc(N2CC3C4CCC(NC4)C3C2)nn1 (stereo not drawn) [Compound 235] |  |

| SMILES | IC50 [nM] | activation at 5 µM [%] |
| --- | --- | --- |
| CCOc1cc2nc(C)cn2cc1C(=O)Nc1ccc(N2CCC3CCCC(C2)N3)nn1 (stereo not drawn) [Compound 236] | 1000 to 10000 |  |
| COc1cc2nc(C)cn2cc1C(=O)Nc1ccc(N2CC3CCCC(C2)N3)cc1F [Compound 147, N-(4-(3,9-diazabicyclo[3.3.1]nonan-3-yl)-2-fluorophenyl)-7-methoxy-2-methylimidazo[1,2-a]pyridine-6-carboxamide] | < 1000 |  |
